Active and inactive are the calls of the source.
Legend:
[1] = target: T1, E3 ubiquitin-protein ligase XIAP (Homo sapiens, UniProt P98170); test: SAR analysis of Antagonists of IAP-family anti-apoptotic proteins. [Related pubchem assays (depositor defined):AID1018, AID1449, AID1513, AID1514, AID1638]
[2] = target: T1, E3 ubiquitin-protein ligase XIAP; test: SAR analysis of Antagonists of XIAP-Bir3 domain of IAP-family anti-apoptotic proteins. [Related pubchem assays (depositor defined):AID1018, AID1449, AID1513, AID1514, AID1638]
Albumin = Albumin (Bos taurus, UniProt P02769); test: Counterscreen for inhibitors of T-cell receptor (TCR)-CD3 interaction: Fluorescence-based biochemical high throughput dose response assay to identify inhibitors of T-cell receptor (TCR)-CD3 interaction using a TAMRA-labeled BSA probe.; format: functional
Chain of Albumin (P02769 whole entry): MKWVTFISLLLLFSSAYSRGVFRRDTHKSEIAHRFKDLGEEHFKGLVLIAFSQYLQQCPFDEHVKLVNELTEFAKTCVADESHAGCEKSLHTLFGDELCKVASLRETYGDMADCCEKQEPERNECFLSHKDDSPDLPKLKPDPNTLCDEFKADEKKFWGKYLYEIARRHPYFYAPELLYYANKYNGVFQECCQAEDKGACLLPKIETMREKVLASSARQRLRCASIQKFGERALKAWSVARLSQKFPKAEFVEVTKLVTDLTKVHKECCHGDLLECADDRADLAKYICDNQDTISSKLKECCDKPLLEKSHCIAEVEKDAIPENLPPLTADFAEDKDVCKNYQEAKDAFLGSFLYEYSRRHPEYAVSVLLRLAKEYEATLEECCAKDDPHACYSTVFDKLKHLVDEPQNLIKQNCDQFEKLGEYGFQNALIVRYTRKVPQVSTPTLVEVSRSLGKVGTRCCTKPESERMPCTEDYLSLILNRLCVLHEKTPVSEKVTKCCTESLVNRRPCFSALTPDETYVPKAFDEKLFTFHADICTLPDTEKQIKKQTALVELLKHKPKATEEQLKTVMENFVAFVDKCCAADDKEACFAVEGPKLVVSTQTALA

SUMO-activating enzyme = SUMO-activating enzyme (Homo sapiens, UniProt Q9UBT2); test: blockers of UBC9-mediated SUMO conjugation – biochemical, AlphaScreen, SUMOylation inhibitor project, confirmation (AID 2018); format: functional
Chain of SUMO-activating enzyme (Q9UBE0 whole entry): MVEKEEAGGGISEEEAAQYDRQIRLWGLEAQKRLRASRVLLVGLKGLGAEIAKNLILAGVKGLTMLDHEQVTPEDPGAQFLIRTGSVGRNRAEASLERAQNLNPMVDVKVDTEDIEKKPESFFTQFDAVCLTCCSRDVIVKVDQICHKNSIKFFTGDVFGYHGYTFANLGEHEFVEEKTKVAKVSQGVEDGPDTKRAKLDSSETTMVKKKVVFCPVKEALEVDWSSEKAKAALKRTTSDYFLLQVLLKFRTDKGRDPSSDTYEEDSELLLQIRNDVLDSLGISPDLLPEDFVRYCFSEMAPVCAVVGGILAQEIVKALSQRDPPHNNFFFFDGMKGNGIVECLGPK
Chain of SUMO-activating enzyme (Q9UBT2 whole entry): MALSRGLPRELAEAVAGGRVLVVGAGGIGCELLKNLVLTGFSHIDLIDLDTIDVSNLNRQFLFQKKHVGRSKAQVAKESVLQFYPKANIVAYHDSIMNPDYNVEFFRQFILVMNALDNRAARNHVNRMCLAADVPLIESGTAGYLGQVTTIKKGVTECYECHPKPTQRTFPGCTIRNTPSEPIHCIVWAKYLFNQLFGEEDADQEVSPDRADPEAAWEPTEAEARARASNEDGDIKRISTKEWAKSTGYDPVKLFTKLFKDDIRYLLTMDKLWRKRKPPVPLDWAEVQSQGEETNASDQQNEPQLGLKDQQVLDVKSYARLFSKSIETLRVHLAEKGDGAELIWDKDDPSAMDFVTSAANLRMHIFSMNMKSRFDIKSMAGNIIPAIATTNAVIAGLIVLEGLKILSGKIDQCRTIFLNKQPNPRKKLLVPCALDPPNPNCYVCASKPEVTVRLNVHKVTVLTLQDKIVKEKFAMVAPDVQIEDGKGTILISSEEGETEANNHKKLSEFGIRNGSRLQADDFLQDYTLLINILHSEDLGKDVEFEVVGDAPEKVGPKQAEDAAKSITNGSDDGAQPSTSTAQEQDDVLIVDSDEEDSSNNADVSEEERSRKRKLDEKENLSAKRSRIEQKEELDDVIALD

Exodeoxyribonuclease V = target: T2, Exodeoxyribonuclease V (Escherichia coli (strain K12), UniProt P04993+P07648+P08394); test: RecBCD inhibition via phage-restricted bacterial growth – absorbance, V66 E. coli, mutant T4 phage, counter-screen for AddAB inhibitor project, dose response (AID 492957); format: functional, cell-based, Escherichia coli str. K-12 substr. MG1655
T2 sequence (P04993 whole entry): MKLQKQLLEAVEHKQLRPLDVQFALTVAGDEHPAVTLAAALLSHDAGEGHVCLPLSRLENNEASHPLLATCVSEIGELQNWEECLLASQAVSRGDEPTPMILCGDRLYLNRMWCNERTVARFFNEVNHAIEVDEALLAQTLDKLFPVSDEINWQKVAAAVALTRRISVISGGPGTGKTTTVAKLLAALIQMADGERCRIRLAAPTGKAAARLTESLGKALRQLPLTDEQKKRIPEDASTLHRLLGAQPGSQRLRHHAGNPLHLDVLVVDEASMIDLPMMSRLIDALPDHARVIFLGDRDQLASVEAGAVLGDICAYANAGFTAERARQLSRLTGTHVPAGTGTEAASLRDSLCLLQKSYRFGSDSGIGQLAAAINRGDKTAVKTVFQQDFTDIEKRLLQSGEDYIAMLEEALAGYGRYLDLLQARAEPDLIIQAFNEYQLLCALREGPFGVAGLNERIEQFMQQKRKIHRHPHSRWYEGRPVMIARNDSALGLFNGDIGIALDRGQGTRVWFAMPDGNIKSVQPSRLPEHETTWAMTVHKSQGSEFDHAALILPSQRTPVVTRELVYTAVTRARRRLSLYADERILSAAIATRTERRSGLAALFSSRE
T2 sequence (P07648 whole entry): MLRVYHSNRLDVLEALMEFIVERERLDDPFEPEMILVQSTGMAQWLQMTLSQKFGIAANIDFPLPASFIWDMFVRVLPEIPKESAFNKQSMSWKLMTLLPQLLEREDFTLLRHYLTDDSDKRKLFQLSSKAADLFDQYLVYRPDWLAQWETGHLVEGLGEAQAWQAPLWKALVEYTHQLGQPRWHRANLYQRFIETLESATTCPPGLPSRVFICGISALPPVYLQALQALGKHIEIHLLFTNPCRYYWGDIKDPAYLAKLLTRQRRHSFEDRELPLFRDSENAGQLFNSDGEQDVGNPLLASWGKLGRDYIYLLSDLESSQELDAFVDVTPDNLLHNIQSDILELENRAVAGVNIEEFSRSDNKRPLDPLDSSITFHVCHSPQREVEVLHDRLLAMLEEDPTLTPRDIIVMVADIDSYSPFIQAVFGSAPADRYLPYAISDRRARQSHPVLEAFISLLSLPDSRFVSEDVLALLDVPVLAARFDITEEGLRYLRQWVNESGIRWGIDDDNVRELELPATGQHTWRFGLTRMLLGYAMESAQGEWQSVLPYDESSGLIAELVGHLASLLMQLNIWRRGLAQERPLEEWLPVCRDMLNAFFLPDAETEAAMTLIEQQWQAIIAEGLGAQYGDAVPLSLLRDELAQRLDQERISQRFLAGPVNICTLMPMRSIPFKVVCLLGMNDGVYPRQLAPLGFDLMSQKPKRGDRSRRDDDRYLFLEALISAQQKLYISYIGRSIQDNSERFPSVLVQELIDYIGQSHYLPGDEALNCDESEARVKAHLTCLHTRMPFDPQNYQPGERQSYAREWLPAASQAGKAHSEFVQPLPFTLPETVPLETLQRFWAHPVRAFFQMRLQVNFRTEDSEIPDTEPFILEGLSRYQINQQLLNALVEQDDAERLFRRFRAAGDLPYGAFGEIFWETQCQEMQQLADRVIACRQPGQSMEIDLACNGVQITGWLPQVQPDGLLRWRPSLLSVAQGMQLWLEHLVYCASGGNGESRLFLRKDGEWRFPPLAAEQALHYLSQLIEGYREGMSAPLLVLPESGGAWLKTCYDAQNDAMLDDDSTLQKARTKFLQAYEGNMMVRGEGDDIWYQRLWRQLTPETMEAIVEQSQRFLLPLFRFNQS
T2 sequence (P08394 whole entry): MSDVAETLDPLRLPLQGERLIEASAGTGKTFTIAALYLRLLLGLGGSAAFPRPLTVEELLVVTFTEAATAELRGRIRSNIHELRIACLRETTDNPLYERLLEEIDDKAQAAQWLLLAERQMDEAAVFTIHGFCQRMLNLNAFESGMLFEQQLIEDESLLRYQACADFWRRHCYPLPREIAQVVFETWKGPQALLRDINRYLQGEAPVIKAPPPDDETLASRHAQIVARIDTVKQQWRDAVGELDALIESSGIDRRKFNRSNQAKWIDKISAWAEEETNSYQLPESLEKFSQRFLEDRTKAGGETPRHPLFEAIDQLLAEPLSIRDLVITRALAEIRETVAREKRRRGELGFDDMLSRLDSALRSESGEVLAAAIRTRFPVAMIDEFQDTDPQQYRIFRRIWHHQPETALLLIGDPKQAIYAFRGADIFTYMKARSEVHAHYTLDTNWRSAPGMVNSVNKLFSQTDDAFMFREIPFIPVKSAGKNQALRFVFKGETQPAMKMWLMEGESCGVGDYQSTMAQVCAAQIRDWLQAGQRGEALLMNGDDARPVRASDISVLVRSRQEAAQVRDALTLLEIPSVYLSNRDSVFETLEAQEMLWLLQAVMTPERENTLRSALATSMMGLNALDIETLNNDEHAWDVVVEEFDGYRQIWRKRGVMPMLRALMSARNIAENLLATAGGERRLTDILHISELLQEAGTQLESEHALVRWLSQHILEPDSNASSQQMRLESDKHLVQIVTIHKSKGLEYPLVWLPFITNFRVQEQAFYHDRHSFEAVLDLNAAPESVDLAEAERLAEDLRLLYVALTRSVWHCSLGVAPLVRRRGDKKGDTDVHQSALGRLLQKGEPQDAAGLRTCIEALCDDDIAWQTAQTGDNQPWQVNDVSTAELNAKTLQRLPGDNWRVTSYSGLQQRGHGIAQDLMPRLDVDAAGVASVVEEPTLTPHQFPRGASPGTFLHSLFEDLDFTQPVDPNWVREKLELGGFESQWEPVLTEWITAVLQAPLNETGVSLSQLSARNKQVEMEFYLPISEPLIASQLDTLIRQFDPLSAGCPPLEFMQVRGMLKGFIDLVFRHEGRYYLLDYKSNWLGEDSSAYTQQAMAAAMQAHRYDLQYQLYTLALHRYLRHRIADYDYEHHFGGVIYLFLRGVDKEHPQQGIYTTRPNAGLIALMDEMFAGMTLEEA

[3] = Counterscreen for AddAB inhibitors: absorbance-based bacterial cell-based high throughput dose response assay for inhibitors of bacterial viability. [Related pubchem assays (depositor defined):AID435030, AID449728, AID449731, AID488942, AID488955, AID488956]; format: functional

T1 sequence (P98170 whole entry, the tested form may be a part): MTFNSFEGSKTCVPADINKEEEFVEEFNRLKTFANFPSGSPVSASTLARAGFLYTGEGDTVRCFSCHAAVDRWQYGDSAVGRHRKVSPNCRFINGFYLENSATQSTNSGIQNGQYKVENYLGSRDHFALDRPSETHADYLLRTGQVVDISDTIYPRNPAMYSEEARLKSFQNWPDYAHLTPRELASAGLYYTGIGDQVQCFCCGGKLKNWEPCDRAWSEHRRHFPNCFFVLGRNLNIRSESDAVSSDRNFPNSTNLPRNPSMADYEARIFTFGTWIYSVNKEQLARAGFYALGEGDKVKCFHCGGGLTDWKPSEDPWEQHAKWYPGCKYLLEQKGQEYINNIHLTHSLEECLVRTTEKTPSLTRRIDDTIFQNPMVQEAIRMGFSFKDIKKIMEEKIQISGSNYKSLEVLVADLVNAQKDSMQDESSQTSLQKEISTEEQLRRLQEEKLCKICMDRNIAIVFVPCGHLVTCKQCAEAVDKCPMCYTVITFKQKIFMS

IC50 [1] | IC50 [2] | SMILES | IC50 (Albumin) | IC50 (SUMO-activating enzyme) | IC50 (Exodeoxyribonuclease V) | IC50 [3]
> 100 µM (inactive) | > 100 µM (inactive) | CN[C@@H](C)C(=O)NC1CCCN([C@@H](C)C(=O)NC2CCc3ccccc3C2)C1=O (stereo partly specified) | – | – | – | –
– | – | O=C(CN1C(=O)S/C(=C\c2ccccc2)C1=O)NNC(=O)c1ccccc1O | > 94.1 µM (inactive) | 38.2 µM (active) | > 119 µM (inactive) | > 119 µM (inactive)
